How the values were obtained:
rat [1] = settings: Subchronic oral toxicity in rodents, fischer, Water, dose end: 13 week, group: systemic
rat [2] = settings: Fertility (Segment I); sprague dawley; Oral; Gavage/Intubation; dose end: 13 PND; group: offspring; systemic / in life observation / body weight / offspring (pup) weight
rabbit [3] = settings: Prenatal developmental toxicity study, new zealand white, Dermal, Topical, dose end: 18 GD, group: maternal
rat [4] = settings: Prenatal developmental toxicity study; wistar; Oral; Feed; dose end: 20 GD; group: maternal; systemic / in life observation / body weight / body weight gain
rabbit [5] = settings: Prenatal developmental toxicity study, new zealand white, Oral, Gavage/Intubation, dose end: 18 GD, group: maternal
rat [6] = settings: Prenatal developmental toxicity study, sprague dawley, Oral, Gavage/Intubation, dose end: 15 GD
dog [7] = settings: Chronic toxicity, beagle, Oral, Feed, dose end: 60 week, group: cholinesterase
rat [8] = settings: Combined chronic toxicity/carcinogenicity, sprague dawley, Oral, Feed, dose end: 24 month, group: systemic
mouse [9] = settings: Carcinogenicity, cd1, Oral, Feed, dose end: 18 month
mouse [10] = settings: Subchronic oral toxicity in rodents, b6c3f1, Gavage/Intubation, dose end: 13 week, group: systemic
rat [11] = settings: Combined chronic toxicity/carcinogenicity; sprague dawley; Oral; Gavage/Intubation; dose end: 24 month; group: systemic; systemic / hematology / erythrocyte (rbc) count differential / erythrocyte (rbc) + systemic / hematology / hemoglobin (hgb) / hemoglobin (…
mouse [12] = settings: Combined chronic toxicity/carcinogenicity, b6c3f1, Oral, Gavage/Intubation, dose end: 2 year, group: systemic
rat [13] = settings: Prenatal developmental toxicity study, sprague dawley, Oral, Gavage/Intubation, dose end: 15 GD; remark: listed apart in the source
rat [14] = settings: Combined chronic toxicity/carcinogenicity; fischer; Inhalation; Whole-Body; dose end: 105 week; group: systemic; systemic / pathology microscopic / nose / atrophy + systemic / pathology microscopic / nose / inflammation + systemic / pathology …
mouse [15] = settings: Subchronic oral toxicity in rodents, cd1, Feed, dose end: 13 week, group: systemic, systemic / hematology / leukocyte (wbc) count differential / leukocyte (wbc) + systemic / hematology / lymphocyte / lymphocyte + systemic / …
dog [16] = settings: Chronic toxicity; beagle; Oral; Gavage/Intubation; dose end: 52 week; group: systemic; systemic / clinical chemistry / cholesterol / cholesterol + systemic / clinical chemistry / triglycerides / triglycerides + systemic / in …
rat [17] = settings: Combined chronic toxicity/carcinogenicity, sprague dawley, Oral, Feed, dose end: 104 week, group: systemic
rat [18] = settings: Subchronic oral toxicity in rodents, sprague dawley, Feed, dose end: 90 day, group: systemic
mouse [19] = settings: Carcinogenicity; cd1; Oral; Feed; dose end: 18 month; group: systemic; systemic / in life observation / body weight / body weight + systemic / in life observation / body weight / body weight gain
rat [20] = settings: Prenatal developmental toxicity study, sprague dawley, Oral, Gavage/Intubation, dose end: 19 GD
rat [21] = settings: Combined chronic toxicity/carcinogenicity; fischer; Oral; Gavage/Intubation; dose end: 2 year; group: systemic; systemic / in life observation / body weight / body weight + systemic / in life observation / clinical signs / [other] + systemic / in life …
rat [22] = settings: Subchronic oral toxicity in rodents, fischer, Gavage/Intubation, dose end: 13 week, group: systemic
[23] = systemic / clinical chemistry / aspartate aminotransferase (ast/sgot) / aspartate aminotransferase (ast/sgot) + systemic / clinical …
[24] = systemic / in life observation / clinical signs / desquamation + systemic / in life observation / clinical signs / erythema + systemic / …
[25] = reproductive / reproductive performance / implantations / implantations + systemic / in life observation / body weight / body weight gain + …
[26] = group: developmental, developmental / developmental malformation / bone / incomplete ossification + developmental / developmental malformation / bone / unossified
[27] = group: maternal, systemic / in life observation / clinical signs / salivation + systemic / in life observation / mortality / mortality + systemic / in life …
[28] = cholinesterase / cholinesterase / cholinesterase / erythrocyte cholinesterase (che) + cholinesterase / cholinesterase / cholinesterase / …
[29] = cholinesterase / cholinesterase / cholinesterase / plasma cholinesterase (che)
[30] = systemic / in life observation / body weight / body weight + systemic / in life observation / body weight / body weight gain + systemic / …
[31] = group: cholinesterase, cholinesterase / cholinesterase / cholinesterase / brain cholinesterase (che) + cholinesterase / cholinesterase / cholinesterase / …
[32] = group: systemic, systemic / in life observation / body weight / body weight gain + systemic / in life observation / food consumption / food consumption + …
[33] = systemic / hematology / reticulocyte / reticulocyte + systemic / organ weight / spleen / absolute + systemic / organ weight / spleen / …
[34] = systemic / hematology / methemoglobin / methemoglobin + systemic / hematology / reticulocyte / reticulocyte + systemic / pathology …
[35] = systemic / pathology microscopic / bone marrow / hypercellularity
[36] = group: developmental, developmental / developmental malformation / brain / dilated cerebral ventricle
[37] = group: maternal, systemic / in life observation / clinical signs / altered breathing rate + systemic / in life observation / clinical signs / lethargy + …
[38] = systemic / organ weight / liver / relative to body weight + systemic / clinical chemistry / cholesterol / cholesterol + systemic / organ …
[39] = systemic / organ weight / testes / relative to body weight
[40] = systemic / organ weight / liver / absolute + systemic / organ weight / liver / relative to body weight + systemic / organ weight / heart / …
[41] = group: developmental, systemic / in life observation / body weight / fetal weight
[42] = group: maternal, systemic / in life observation / body weight / body weight + systemic / in life observation / body weight / body weight gain + systemic / in…
[43] = systemic / organ weight / liver / relative to body weight

## CCCCOCCOCCO [2-(2-Butoxyethoxy)ethanol]
Rat [1]; [23]
  LOAEL: > 1000 mg/kg/day
  NEL: 50 mg/kg/day
  NOAEL: ≥ 1000 mg/kg/day
Rat [1]; systemic / hematology / erythrocyte (rbc) count differential / erythrocyte (rbc) + systemic / hematology / hematocrit (hct) / hematocrit (…
  LEL: 250 mg/kg/day
Rat [2]
  LEL: 1000 mg/kg/day
  LOAEL: > 1000 mg/kg/day
  NEL: 500 mg/kg/day
  NOAEL: ≥ 1000 mg/kg/day
Rabbit [3]; systemic / in life observation / clinical signs / desquamation + systemic / in life observation / clinical signs / erythema
  LEL: 300 mg/kg/day
Rabbit [3]; [24]
  LOAEL: > 1000 mg/kg/day
  NEL: 100 mg/kg/day
  NOAEL: ≥ 1000 mg/kg/day
Rat [4]
  LEL: 25 mg/kg/day
  LOAEL: > 633 mg/kg/day
  NEL: < 25 mg/kg/day
  NOAEL: ≥ 633 mg/kg/day

## CCN(CC)CC.O=C(O)COc1nc(Cl)c(Cl)cc1Cl [Triclopyr triethylamine salt]
Rabbit [5]; [25]
  LOAEL: 100 mg/kg/day
  NEL: 10 mg/kg/day
  NOAEL: 30 mg/kg/day
Rabbit [5]; reproductive / reproductive performance / preimplantation loss / preimplantation loss
  LEL: 30 mg/kg/day
Rat [6]; [26]
  LEL: 300 mg/kg/day
  LOAEL: 300 mg/kg/day
  NEL: 100 mg/kg/day
  NOAEL: 100 mg/kg/day
Rat [6]; group: maternal, systemic / in life observation / clinical signs / salivation + systemic / in life observation / mortality / mortality
  LOAEL: 300 mg/kg/day
Rat [6]; [27]
  NEL: 30 mg/kg/day
  NOAEL: 100 mg/kg/day
Rat [6]; group: maternal, systemic / in life observation / water consumption / water consumption
  LEL: 100 mg/kg/day

## CCOP(=S)(OCC)Oc1nc(Cl)n(C(C)C)n1 [Isazofos]
Dog [7]; [28]
  LOAEL: > 1.61 mg/kg/day
  NOAEL: ≥ 1.61 mg/kg/day
Dog [7]; [29]
  LEL: 0.0015 mg/kg/day
  NEL: < 0.0015 mg/kg/day
Rat [8]; systemic / in life observation / body weight / body weight + systemic / in life observation / body weight / body weight gain
  LOAEL: 10 mg/kg/day
Rat [8]; [30]
  LEL: 10 mg/kg/day
  NEL: 0.05 mg/kg/day
  NOAEL: 0.05 mg/kg/day
Mouse [9]; [31]
  LEL: 4.5 mg/kg/day
  LOAEL: 4.5 mg/kg/day
  NEL: 0.15 mg/kg/day
  NOAEL: 0.15 mg/kg/day
Mouse [9]; [32]
  LEL: 37.5 mg/kg/day
  LOAEL: 37.5 mg/kg/day
  NEL: 4.5 mg/kg/day
  NOAEL: 4.5 mg/kg/day

## Nc1ccc([N+](=O)[O-])cc1 [4-Nitroaniline]
Mouse [10]; [33]
  LOAEL: 30 mg/kg/day
  NEL: 3 mg/kg/day
  NOAEL: 10 mg/kg/day
Mouse [10]; systemic / pathology microscopic / spleen / hematopoietic cell proliferation + systemic / organ weight / liver / relative to body weight + …
  LEL: 10 mg/kg/day
Rat [11]
  LEL: 1.5 mg/kg/day
  LOAEL: > 9 mg/kg/day
  NEL: 0.25 mg/kg/day
  NOAEL: ≥ 9 mg/kg/day
Mouse [12]; [34]
  LOAEL: 30 mg/kg/day
  NOAEL: 3 mg/kg/day
Mouse [12]; [35]
  LEL: 3 mg/kg/day
  NEL: < 3 mg/kg/day

## c1ccc2ccccc2c1 [Naphthalene]
Rat [13]; [36]
  LEL: 450 mg/kg/day
  LOAEL: > 450 mg/kg/day
  NEL: 150 mg/kg/day
  NOAEL: ≥ 450 mg/kg/day
Rat [13]; [37]
  LEL: 50 mg/kg/day
  LOAEL: 50 mg/kg/day
  NEL: < 50 mg/kg/day
  NOAEL: < 50 mg/kg/day
Rat [14]
  LEL: 3.6 mg/kg/day
  LOAEL: 3.6 mg/kg/day
  NEL: < 3.6 mg/kg/day
  NOAEL: < 3.6 mg/kg/day

## COc1cc(OC)nc(NC(=O)NS(=O)(=O)c2cc(NC=O)ccc2C(=O)N(C)C)n1 [Foramsulfuron]
Mouse [15]
  LEL: 1000 mg/kg/day
  LOAEL: > 1000 mg/kg/day
  NEL: 498 mg/kg/day
  NOAEL: ≥ 1000 mg/kg/day

## O=C(NC(=O)c1c(F)cccc1F)Nc1ccc(CON=C(c2ccc(Cl)cc2)C2CC2)cc1 [Flucycloxuron]
Dog [16]
  LEL: 10 mg/kg/day
  LOAEL: 10 mg/kg/day
  NEL: < 10 mg/kg/day
  NOAEL: < 10 mg/kg/day
Rat [17]; [38]
  LOAEL: > 7000 mg/kg/day
  NOAEL: ≥ 7000 mg/kg/day
Rat [17]; [39]
  LEL: 120 mg/kg/day
  NEL: < 120 mg/kg/day
Rat [18]; [40]
  LEL: 200 mg/kg/day
  NEL: < 200 mg/kg/day
Rat [18]; systemic / pathology microscopic / liver / necrosis + systemic / pathology microscopic / spleen / pigmentation + systemic / clinical …
  NOAEL: 200 mg/kg/day
Rat [18]; systemic / pathology microscopic / liver / necrosis + systemic / pathology microscopic / spleen / pigmentation + systemic / organ weight / …
  LOAEL: 2000 mg/kg/day
Mouse [19]
  LEL: 73 mg/kg/day
  LOAEL: 73 mg/kg/day
  NEL: 5.3 mg/kg/day
  NOAEL: 5.3 mg/kg/day

## [N-]=[N+]=[N-].[Na+] [Sodium azide]
Rat [20]; [41]
  LEL: 17.5 mg/kg/day
  LOAEL: > 17.5 mg/kg/day
  NEL: 5 mg/kg/day
  NOAEL: ≥ 17.5 mg/kg/day
Rat [20]; [42]
  LEL: 17.5 mg/kg/day
  LOAEL: > 17.5 mg/kg/day
  NEL: 5 mg/kg/day
  NOAEL: ≥ 17.5 mg/kg/day
Rat [21]
  LEL: 10 mg/kg/day
  LOAEL: 10 mg/kg/day
  NEL: 5 mg/kg/day
  NOAEL: 5 mg/kg/day
Rat [22]; systemic / in life observation / body weight / body weight gain + systemic / in life observation / clinical signs / hunched posture
  LOAEL: 10 mg/kg/day
Rat [22]; systemic / in life observation / body weight / body weight gain + systemic / in life observation / clinical signs / hunched posture + …
  NOAEL: 5 mg/kg/day
Rat [22]; [43]
  LEL: 1.25 mg/kg/day
  NEL: < 1.25 mg/kg/day

Source: EPA's ToxRefDB 2
